Data reported in PubChem BioAssay AID1963976 (Molecular Pharmacology Branch, DTP, NCI, 2024).
Where “and” joins values, the source holds several entries; their conditions need not be identical. Equal entries are not always repeated. Values belong to the compound of their own block, whether it stands above or below them.

Test system: 435261-313-R-J1-PDC tumor spheroid viability
Assay: Anticancer human tumor 435261-313-R-J1-PDC patient-derived colon adenocarcinoma cell line growth inhibition [PI3K]
Details: spheroids with HUVEC and MSC; for viability, T/C: stronger effect = lower value
Summary of the method: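 Tumor cells were combined with HUVEC and MSCs into spheroids, then dosed with PI3K-inhibitor combinations over half-log ranges capped near clinical Cmax or 10 microM.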

[1] = curve of first compound, second compound 0.0316 µM
[2] = curve of first compound, second compound 0.1 µM
[3] = curve of first compound, second compound 0.316 µM
[4] = curve of first compound, second compound 1 µM
[5] = curve of first compound, second compound 3.16 µM
[6] = curve of first compound, second compound 10 µM
[7] = second compound 0.0316 µM, first compound 0.0316 µM
[8] = second compound 0.0316 µM, first compound 0.1 µM
[9] = second compound 0.0316 µM, first compound 0.316 µM
[10] = second compound 0.0316 µM, first compound 1 µM
[11] = second compound 0.0316 µM, first compound 3.16 µM
[12] = second compound 0.0316 µM, first compound 10 µM
[13] = second compound 0.1 µM, first compound 0.0316 µM
[14] = second compound 0.1 µM, first compound 0.1 µM
[15] = second compound 0.1 µM, first compound 0.316 µM
[16] = second compound 0.1 µM, first compound 1 µM
[17] = second compound 0.1 µM, first compound 3.16 µM
[18] = second compound 0.1 µM, first compound 10 µM
[19] = second compound 0.316 µM, first compound 0.0316 µM
[20] = second compound 0.316 µM, first compound 0.1 µM
[21] = second compound 0.316 µM, first compound 0.316 µM
[22] = second compound 0.316 µM, first compound 1 µM
[23] = second compound 0.316 µM, first compound 3.16 µM
[24] = second compound 0.316 µM, first compound 10 µM
[25] = second compound 1 µM, first compound 0.0316 µM
[26] = second compound 1 µM, first compound 0.1 µM
[27] = second compound 1 µM, first compound 0.316 µM
[28] = second compound 1 µM, first compound 1 µM
[29] = second compound 1 µM, first compound 3.16 µM
[30] = second compound 1 µM, first compound 10 µM
[31] = second compound 3.16 µM, first compound 0.0316 µM
[32] = second compound 3.16 µM, first compound 0.1 µM
[33] = second compound 3.16 µM, first compound 0.316 µM
[34] = second compound 3.16 µM, first compound 1 µM
[35] = second compound 3.16 µM, first compound 3.16 µM
[36] = second compound 3.16 µM, first compound 10 µM
[37] = second compound 10 µM, first compound 0.0316 µM
[38] = second compound 10 µM, first compound 0.1 µM
[39] = second compound 10 µM, first compound 0.316 µM
[40] = second compound 10 µM, first compound 1 µM
[41] = second compound 10 µM, first compound 3.16 µM
[42] = second compound 10 µM, first compound 10 µM
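Further: spheroids exposed to compounds for 7 days.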

- IC50 (curve of first compound, second compound 0.00316 µM): > 10 µM
- IC50 (curve of first compound, second compound 0.01 µM): > 10 µM
- IC50 [1]: > 10 µM
- IC50 [2]: < 0.0316 µM
- IC50 [3]: < 0.0316 µM
- IC50 [4]: < 0.0316 µM
Compound: CNC(=O)c1ccc(N2C(=S)N(c3ccc(C#N)c(C(F)(F)F)c3)C(=O)C2(C)C)cc1F + CC(Nc1ccc2c(c1)OCCn1cc(N3C(=O)OCC3C(F)F)nc1-2)C(N)=O
- viability, T/C (second compound 0.00316 µM, first compound 0.0316 µM): 73.1%
- viability, T/C (second compound 0.00316 µM, first compound 0.1 µM): 95.5%
- viability, T/C (second compound 0.00316 µM, first compound 0.316 µM): 74.7%
- viability, T/C (second compound 0.00316 µM, first compound 1 µM): 101%
- viability, T/C (second compound 0.00316 µM, first compound 3.16 µM): 106%
- viability, T/C (second compound 0.00316 µM, first compound 10 µM): 93.2%
- viability, T/C (second compound 0.01 µM, first compound 0.0316 µM): 81.7%
- viability, T/C (second compound 0.01 µM, first compound 0.1 µM): 92.6%
- viability, T/C (second compound 0.01 µM, first compound 0.316 µM): 77.2%
- viability, T/C (second compound 0.01 µM, first compound 1 µM): 96%
- viability, T/C (second compound 0.01 µM, first compound 3.16 µM): 141%
- viability, T/C (second compound 0.01 µM, first compound 10 µM): 123%
- viability, T/C [7]: 69.8%
- viability, T/C [8]: 77.3%
- viability, T/C [9]: 57.7%
- viability, T/C [10]: 82.9%
- viability, T/C [11]: 84.6%
- viability, T/C [12]: 68.2%
- viability, T/C [13]: 48.9%
- viability, T/C [14]: 28.5%
- viability, T/C [15]: 44.9%
- viability, T/C [16]: 51.9%
- viability, T/C [17]: 36.8%
- viability, T/C [18]: 29.6%
- viability, T/C [19]: 22.3%
- viability, T/C [20]: 19.2%
- viability, T/C [21]: 15.5%
- viability, T/C [22]: 24.6%
- viability, T/C [23]: 24%
- viability, T/C [24]: 17.5%
- viability, T/C [25]: 15.5%
- viability, T/C [26]: 15.6%
- viability, T/C [27]: 15.3%
- viability, T/C [28]: 15.2%
- viability, T/C [29]: 18.8%
- viability, T/C [30]: 12.8%

- IC50 [1]: > 10 µM
- IC50 [2]: > 10 µM
- IC50 [3]: > 10 µM
- IC50 [4]: > 10 µM
- IC50 [5]: > 10 µM
- IC50 [6]: > 10 µM
Compound: CC(Cn1ccc(-c2ccc(C#N)c(Cl)c2)n1)NC(=O)c1cc(C(C)O)[nH]n1 (stereo not given) + CC(Nc1ncnc2nc[nH]c12)c1cc2cccc(Cl)c2c(=O)n1-c1ccccc1
- viability, T/C [7]: 101%
- viability, T/C [8]: 96.2%
- viability, T/C [9]: 107%
- viability, T/C [10]: 75.8%
- viability, T/C [11]: 101%
- viability, T/C [12]: 100%
- viability, T/C [13]: 105%
- viability, T/C [14]: 95.9%
- viability, T/C [15]: 90.9%
- viability, T/C [16]: 103%
- viability, T/C [17]: 115%
- viability, T/C [18]: 76.1%
- viability, T/C [19]: 82.7%
- viability, T/C [20]: 90.4%
- viability, T/C [21]: 90.5%
- viability, T/C [22]: 80.5%
- viability, T/C [23]: 103%
- viability, T/C [24]: 81.6%
- viability, T/C [25]: 81.1%
- viability, T/C [26]: 99.1%
- viability, T/C [27]: 70.9%
- viability, T/C [28]: 85.9%
- viability, T/C [29]: 73.5%
- viability, T/C [30]: 76.6%
- viability, T/C [31]: 77.8%
- viability, T/C [32]: 58.4%
- viability, T/C [33]: 77.2%
- viability, T/C [34]: 85.5%
- viability, T/C [35]: 65.1%
- viability, T/C [36]: 62.1%
- viability, T/C [37]: 58.5%
- viability, T/C [38]: 41.7%
- viability, T/C [39]: 48.5%
- viability, T/C [40]: 74.7%
- viability, T/C [41]: 72.4%
- viability, T/C [42]: 42%

- IC50 [1]: 1.4 µM
- IC50 [2]: 0.527 µM
- IC50 [3]: 0.565 µM
- IC50 [4]: 0.863 µM
- IC50 [5]: 0.679 µM
- IC50 [6]: 0.155 µM
Compound: Cn1ncc(Cl)c1-c1cc(C(=O)NC(CN)Cc2cccc(F)c2)sc1Cl (stereo not given) + CC(Nc1ncnc2nc[nH]c12)c1cc2cccc(Cl)c2c(=O)n1-c1ccccc1
- viability, T/C [7]: 95.1%
- viability, T/C [8]: 74.4%
- viability, T/C [9]: 75.1%
- viability, T/C [10]: 63.1%
- viability, T/C [11]: 27.8%
- viability, T/C [12]: 14.2%
- viability, T/C [13]: 86.6%
- viability, T/C [14]: 96.7%
- viability, T/C [15]: 50%
- viability, T/C [16]: 39.9%
- viability, T/C [17]: 23.9%
- viability, T/C [18]: 9.05%
- viability, T/C [19]: 106%
- viability, T/C [20]: 58.1%
- viability, T/C [21]: 87.8%
- viability, T/C [22]: 26.8%
- viability, T/C [23]: 22.5%
- viability, T/C [24]: 10.6%
- viability, T/C [25]: 94.7%
- viability, T/C [26]: 82.9%
- viability, T/C [27]: 70.8%
- viability, T/C [28]: 47.7%
- viability, T/C [29]: 25.6%
- viability, T/C [30]: 15.7%
- viability, T/C [31]: 87.3%
- viability, T/C [32]: 81.8%
- viability, T/C [33]: 66.8%
- viability, T/C [34]: 40.5%
- viability, T/C [35]: 21.9%
- viability, T/C [36]: 9.23%
- viability, T/C [37]: 62.1%
- viability, T/C [38]: 62.8%
- viability, T/C [39]: 35%
- viability, T/C [40]: 27.5%
- viability, T/C [41]: 22.1%
- viability, T/C [42]: 6.29%

Second part, the compound before the results:

Compound: CNC(=O)c1ccc(N2C(=S)N(c3ccc(C#N)c(C(F)(F)F)c3)C(=O)C2(C)C)cc1F + CC(Nc1ncnc2nc[nH]c12)c1cc2cccc(Cl)c2c(=O)n1-c1ccccc1
- IC50 [1]: > 10 µM
- IC50 [2]: > 10 µM
- IC50 [3]: > 10 µM
- IC50 [4]: > 10 µM
- IC50 [5]: > 10 µM
- IC50 [6]: > 10 µM
- viability, T/C [7]: 106%
- viability, T/C [8]: 70.5%
- viability, T/C [9]: 72.3%
- viability, T/C [10]: 82.8%
- viability, T/C [11]: 99.8%
- viability, T/C [12]: 74.8%
- viability, T/C [13]: 101%
- viability, T/C [14]: 90.6%
- viability, T/C [15]: 111%
- viability, T/C [16]: 121%
- viability, T/C [17]: 79.7%
- viability, T/C [18]: 65.7%
- viability, T/C [19]: 78.5%
- viability, T/C [20]: 90.4%
- viability, T/C [21]: 103%
- viability, T/C [22]: 79.8%
- viability, T/C [23]: 102%
- viability, T/C [24]: 81.8%
- viability, T/C [25]: 95.1%
- viability, T/C [26]: 97.1%
- viability, T/C [27]: 75.9%
- viability, T/C [28]: 86.5%
- viability, T/C [29]: 73.1%
- viability, T/C [30]: 66.4%
- viability, T/C [31]: 101%
- viability, T/C [32]: 91.6%
- viability, T/C [33]: 69.5%
- viability, T/C [34]: 64.5%
- viability, T/C [35]: 59.3%
- viability, T/C [36]: 67.3%
- viability, T/C [37]: 55%
- viability, T/C [38]: 44.7%
- viability, T/C [39]: 64%
- viability, T/C [40]: 68.6%
- viability, T/C [41]: 58.5%
- viability, T/C [42]: 39.8%

Compound: CC(C)NCC(C(=O)N1CCN(c2ncnc3c2C(C)CC3O)CC1)c1ccc(Cl)cc1 (stereo not given)
- viability, T/C (compound 0.0316 µM): 76.4% and 94.8% and 95.1%
- viability, T/C (compound 0.1 µM): 90.5% and 77% and 73.2%
- viability, T/C (compound 0.316 µM): 95.1% and 85.8% and 97.9%
- viability, T/C (compound 1 µM): 57.7% and 48.9% and 79%
- viability, T/C (compound 3.16 µM): 58.6% and 52.4% and 76.3%
- viability, T/C (compound 10 µM): 20.2% and 36.6% and 29%
- IC50 (curve of compound): 3.56 µM and 0.965 µM and 5.92 µM
